Assay results as given in patent US20180273528A1 (LES LABORATOIRES SERVIER, priority 2015, published 2018).

Legend:
DYRK1A [1] = biological target: T1, DYRK1A (Homo sapiens, UniProt Q13627); assay: Kinase TR-FRET assay, DYRK1A; type: biochemical; parameters: full-length, wild-type human DYRK1A (NM_001396) with an HA tag; expressed in transfected cells; host or cells: human U2-OS osteosarcoma cells, transient transfection of a pcDNA3.1 plasmid; settings: full-length human kinase, 10 μM ATP
In short: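 Compounds tested at 0.1 nM to 30 μM in reaction buffer; reaction stopped with 10 mM EDTA. Phosphorylated MBP detected with 1 nM Europium-labelled anti-phospho-Thr232 antibody by TR-FRET.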

DYRK1A [2] = biological target: T1, DYRK1A; assay: Cellular DYRK1 autophosphorylation assay in U2-OS cells; type: cell-based; parameters: full-length, wild-type human DYRK1A (NM_001396) with an HA tag; expressed in transfected cells; host or cells: human U2-OS osteosarcoma cells, transient transfection of a pcDNA3.1 plasmid; settings: U2-OS cells transfected with HA-tagged human DYRK1A, 5 hours exposure; read-out: IC50 (μM) P-Ser520-Dyrk1A -Cell assay
In short: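 IC50 derived from dose-response curves of phospho-Ser520-DYRK1A (blots normalised to total DYRK1A), quantified by either immunoblotting with chemiluminescence or Mesoscale electrochemiluminescent ELISA. Compounds applied to U2-OS cells across several concentrations for 5 hours.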

CDK9 = biological target: T2, CDK9 (Homo sapiens, UniProt P50750); assay: Kinase TR-FRET assay, CDK9; type: biochemical; settings: full-length human kinase, 10 μM ATP
T2 construct: full-length human kinases from Carna Biosciences; purchased Carna Biosciences 04-110
Experimental: Inhibition of the enzymatic activity of human kinases was evaluated in a Time-Resolved Fluorescence Resonance Energy Transfer (TR-FRET) assay in 384-well reaction plates. In this assay, full-length human kinases from Carna Biosciences—DYRK1A (NM_001396, ref. 04-130; 2.0 ng/μl), DYRK1B (NM_004714, ref. 04-131; 1.2 ng/p), CLK1 (NM_001162407, ref. 04-126; 0.7 ng/μl), CDK9 (NM_001261, ref. 04-110; 0.9 ng/μl), or GSK3β (NM_001146156, ref. 04-141; 2.0 ng/μl—were incubated for 40 minutes (DYRK1A and DYRK1B) or 100 minutes (CLK1, CDK9 and GSK3β) at room temperature with ATP (Sigma A2383, 10 μM) and a ULight™-labelled human Myelin Basic Protein (MBP) peptide substrate (Perkin Elmer TRF0109, 100 nM) in a reaction buffer composed of 50 mM HEPES pH7.4, 1 mM EGTA, 10 mM MgCl2, 2 mM DTT and 0.01% Tween20. Test compounds of the invention were added in reaction buffer at a range of concentrations from 0.1 nM to 30 μM. Following addition of EDTA (Sigma E7889, 10 mM) to stop the reaction, Europium-labelled mouse monoclonal antibody recognizing phospho-Thr232 in MBP (Perkin Elmer TRF0201, 1 nM) was added. After one hour, the reaction plates were read using a fluorescence reader (EnVision®, Perkin Elmer) at 620 nm and 665 nm (excitation at 340 nm); when the Europium donor fluorophore is excited by light at 340 nm, an energy transfer (620 nm) to the acceptor occurs, which will then emit light at 665 nm.

DYRK1B = biological target: T3, DYRK1B (Homo sapiens, UniProt Q9Y463); assay: Kinase TR-FRET assay, DYRK1B; type: biochemical; settings: full-length human kinase, 10 μM ATP
T3 construct: full-length human kinases from Carna Biosciences; purchased Carna Biosciences 04-131
Experimental: Inhibition of the enzymatic activity of human kinases was evaluated in a Time-Resolved Fluorescence Resonance Energy Transfer (TR-FRET) assay in 384-well reaction plates. […] Test compounds of the invention were added in reaction buffer at a range of concentrations from 0.1 nM to 30 μM. Following addition of EDTA (Sigma E7889, 10 mM) to stop the reaction, Europium-labelled mouse monoclonal antibody recognizing phospho-Thr232 in MBP (Perkin Elmer TRF0201, 1 nM) was added.

[3] = biological target: T4, His-TEV-DYRK1A Kinase domain (aa127-485) (Homo sapiens, UniProt Q13627); assay: Kinase ADP assay (ADP Hunter), DYRK1A kinase domain; type: biochemical; settings: 20 μM ATP
T4 construct: His-TEV-DYRK1A Kinase domain (aa127-485); His tag (N); TEV protease cleavage site (N)
In short: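 Readout is ADP Hunter fluorescence at 590 nm, developed 20 min at 30 °C after the kinase step. That step ran 10 min at 30 °C in Hepes pH 7.4 (10 mM MgCl2, 1 mM EGTA, 0.02% Tween20) containing 20 μM ATP, 40 μM peptide and 20 nM enzyme plus compound.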

T3 sequence (Q9Y463 whole entry): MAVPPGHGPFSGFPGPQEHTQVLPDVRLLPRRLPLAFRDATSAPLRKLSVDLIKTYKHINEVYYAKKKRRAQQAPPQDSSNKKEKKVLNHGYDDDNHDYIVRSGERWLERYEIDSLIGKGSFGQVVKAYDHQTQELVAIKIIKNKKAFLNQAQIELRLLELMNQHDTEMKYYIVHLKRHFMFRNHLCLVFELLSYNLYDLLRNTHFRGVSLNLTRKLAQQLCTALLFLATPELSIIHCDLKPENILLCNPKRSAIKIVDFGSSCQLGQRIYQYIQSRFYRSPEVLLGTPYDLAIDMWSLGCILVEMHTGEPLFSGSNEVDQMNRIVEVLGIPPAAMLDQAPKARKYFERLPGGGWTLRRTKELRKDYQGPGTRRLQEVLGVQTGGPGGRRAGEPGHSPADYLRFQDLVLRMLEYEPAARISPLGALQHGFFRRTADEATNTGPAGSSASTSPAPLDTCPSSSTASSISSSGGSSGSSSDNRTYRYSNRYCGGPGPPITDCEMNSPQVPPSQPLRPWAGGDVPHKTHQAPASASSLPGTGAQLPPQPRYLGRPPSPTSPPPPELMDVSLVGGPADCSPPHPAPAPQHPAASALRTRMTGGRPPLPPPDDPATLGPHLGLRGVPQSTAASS
T2 sequence (P50750 whole entry): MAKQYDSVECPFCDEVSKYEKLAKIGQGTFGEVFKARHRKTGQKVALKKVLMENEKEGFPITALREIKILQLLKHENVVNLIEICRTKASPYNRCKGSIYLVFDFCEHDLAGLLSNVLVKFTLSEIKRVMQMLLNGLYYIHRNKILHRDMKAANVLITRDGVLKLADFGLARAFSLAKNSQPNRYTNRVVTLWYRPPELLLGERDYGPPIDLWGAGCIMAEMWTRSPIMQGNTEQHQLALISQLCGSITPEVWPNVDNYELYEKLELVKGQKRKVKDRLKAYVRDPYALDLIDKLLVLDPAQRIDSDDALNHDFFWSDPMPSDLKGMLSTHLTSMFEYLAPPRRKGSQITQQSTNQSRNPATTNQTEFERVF
T2 sequence (O60563 whole entry partner): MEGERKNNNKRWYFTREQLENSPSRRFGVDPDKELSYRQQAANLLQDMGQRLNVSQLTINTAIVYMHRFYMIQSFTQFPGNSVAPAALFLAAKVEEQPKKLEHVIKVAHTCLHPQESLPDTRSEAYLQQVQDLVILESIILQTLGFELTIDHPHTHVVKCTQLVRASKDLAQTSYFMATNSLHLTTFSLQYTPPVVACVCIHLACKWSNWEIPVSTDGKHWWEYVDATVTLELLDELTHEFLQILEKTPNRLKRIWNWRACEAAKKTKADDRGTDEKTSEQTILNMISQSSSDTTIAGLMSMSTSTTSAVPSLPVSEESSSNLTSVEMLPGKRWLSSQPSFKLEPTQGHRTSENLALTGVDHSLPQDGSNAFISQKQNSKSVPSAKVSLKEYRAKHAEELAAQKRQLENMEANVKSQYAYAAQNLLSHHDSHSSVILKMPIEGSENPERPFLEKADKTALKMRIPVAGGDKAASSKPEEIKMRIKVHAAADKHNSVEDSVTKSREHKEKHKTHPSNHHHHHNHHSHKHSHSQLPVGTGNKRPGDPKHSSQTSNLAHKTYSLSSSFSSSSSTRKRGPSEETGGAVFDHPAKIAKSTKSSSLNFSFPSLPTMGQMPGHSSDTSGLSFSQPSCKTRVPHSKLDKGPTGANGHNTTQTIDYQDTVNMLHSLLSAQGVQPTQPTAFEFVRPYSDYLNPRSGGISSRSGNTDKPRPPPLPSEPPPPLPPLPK

Row | SMILES | IC50 (DYRK1A [1]) [µM] | IC50 (DYRK1A [2]) [µM] | IC50 (CDK9) [µM] | IC50 (DYRK1B) [µM] | IC50 [3] [µM]
1 | Cc1nc2ccc(-c3cc(N)nc(N)c3)nc2n1Cc1ccncc1 [Example 5, 4-[2-methyl-3-(pyridin-4-ylmethyl)-3H-imidazo[4,5-b]pyridin-5-yl]pyridine-2,6-diamine] | 0.006 | 1 | 6.56 | – | 0.02
2 | Cc1nc2ccc(-c3cc(N)nc(N)c3)nc2n1Cc1ccccn1 [Example 6, 4-[2-methyl-3-(pyridin-2-ylmethyl)-3H-imidazo[4,5-b]pyridin-5-yl]pyridine-2,6-diamine] | 0.155 | – | 1.09 | 0.149 | 0.493
3 | Cc1nc2ccc(-c3cc(N)nc(N)c3)nc2n1CCCN1CCCC1=O [Example 13, 1-{3-[5-(2,6-diaminopyridin-4-yl)-2-methyl-3H-imidazo[4,5-b]pyridin-3-yl]propyl}pyrrolidin-2-one] | 0.012 | – | > 10 | 0.019 | 0.035
4 | Cc1nc2ccc(-c3cc(N)nc(N)c3)nc2n1Cc1cccs1 [Example 20, 4-[2-methyl-3-(thiophen-2-ylmethyl)-3H-imidazo[4,5-b]pyridin-5-yl]pyridine-2,6-diamine] | 0.016 | – | 2.92 | 0.016 | 0.032
5 | CC(=O)Nc1ccc(CCn2c(C)nc3ccc(-c4cc(N)nc(N)c4)nc32)cc1 [Example 24, N-(4-{2-[5-(2,6-diaminopyridin-4-yl)-2-methyl-3H-imidazo[4,5-b]pyridin-3-yl]ethyl}phenyl)acetamide] | 0.005 | – | 3.53 | 0.015 | 0.008
6 | CCC(C)Cn1c(C)nc2ccc(-c3cc(N)nc(N)c3)nc21 (stereo not shown) [Example 34, 4-[2-methyl-3-(2-methylbutyl)-3H-imidazo[4,5-b]pyridin-5-yl]pyridine-2,6-diamine] | 0.03 | – | 1.4 | 0.015 | 0.01
7 | Cc1nc2ccc(-c3cc(N)nc(N)c3)nc2n1Cc1ccccc1Cl [Example 47, 4-[3-(2-chlorobenzyl)-2-methyl-3H-imidazo[4,5-b]pyridin-5-y]pyridine-2,6-diamine] | 0.003 | – | 0.728 | 0.046 | 0.025
8 | Cc1nc2ccc(-c3cc(N)nc(N)c3)nc2n1Cc1cc(Cl)ccc1Cl [Example 57, 4-[3-(2,5-dichlorobenzyl)-2-methyl-3H-imidazo[4,5-b]pyridin-5-yl]pyridine-2,6-diamine] | 0.026 | – | > 10 | 0.005 | 0.085
9 | CCCCn1c(C)nc2ccc(-c3cc(N)nc(NCc4ccccc4)c3)nc21 [Example 231, N-benzyl-4-(3-butyl-2-methyl-3H-imidazo[4,5-b]pyridin-5-yl)pyridine-2,6-diamine] | 0.011 | – | > 10 | 0.003 | 0.046
10 | Cc1nc2ccc(-c3ccnc(N)c3)nc2n1CCC1CCCCC1 [Example 237, 4-[3-(2-cyclohexylethyl)-2-methyl-3H-imidazo[4,5-b]pyridin-5-yl]pyridin-2-amine] | 0.005 | – | 0.718 | 0.005 | 0.045

The remaining compounds from weak to strong by IC50 (DYRK1A [1]), led by results:

Row | IC50 (DYRK1A [1]) [µM] | IC50 (DYRK1A [2]) [µM] | IC50 (CDK9) [µM] | IC50 (DYRK1B) [µM] | IC50 [3] [µM] | SMILES
11 | 0.032 | – | 4.58 | 0.055 | 0.079 | Cc1nc2ccc(-c3cc(N)nc(N)c3)nc2n1Cc1ccc(F)cc1 [Example 10, 4-[3-(4-fluorobenzyl)-2-methyl-3H-imidazo[4,5-b]pyridin-5-yl]pyridine-2,6-diamine]
12 | 0.029 | – | > 10 | 0.132 | 0.193 | CCC(CC)n1c(C)nc2ccc(-c3cc(N)nc(N)c3)nc21 [Example 68, 4-[2-methyl-3-(pentan-3-yl)-3H-imidazo[4,5-b]pyridin-5-yl]pyridine-2,6-diamine]
13 | 0.017 | – | 3.57 | 0.125 | 0.018 | Cc1nc2ccc(-c3cc(N)nc(N)c3)nc2n1CC(C)(C)C [Example 30, 4-[3-(2,2-dimethylpropyl)-2-methyl-3H-imidazo[4,5-b]pyridin-5-yl]pyridine-2,6-diamine]
14 | 0.015 | – | > 10 | 0.005 | 0.056 | Cc1nc2ccc(-c3cc(N)nc(N)c3)nc2n1CCOc1cccc2ccccc12 [Example 27, 4-{2-methyl-3-[2-(naphthalen-1-yloxy)ethyl]-3H-imidazo[4,5-b]pyridin-5-yl}pyridine-2,6-diamine]
15 | 0.013 | 0.08 | 0.314 | 0.004 | 0.01 | Cc1nc2ccc(-c3cc(N)nc(N)c3)nc2n1C1CCCC1 [Example 1, 4-(3-cyclopentyl-2-methyl-3H-imidazo[4,5-b]pyridin-5-yl)pyridine-2,6-diamine]
16 | 0.013 | – | > 10 | 0.091 | 0.207 | CCCCn1c(C)nc2ccc(-c3cc(N)nc(NC(=O)Cc4ccccc4)c3)nc21 [Example 235, N-[6-amino-4-(3-butyl-2-methyl-3H-imidazo[4,5-b]pyridin-5-yl)pyridin-2-yl]-2-phenylacetamide]
17 | 0.009 | – | > 10 | 0.03 | 0.026 | CCCC(C)n1c(C)nc2ccc(-c3cc(N)nc(N)c3)nc21 (stereo not shown) [Example 64, 4-[2-methyl-3-(pentan-2-yl)-3H-imidazo[4,5-b]pyridin-5-yl]pyridine-2,6-diamine]
18 | 0.008 | 0.2 | 0.383 | 0.001 | 0.01 | CCCn1c(C)nc2ccc(-c3cc(N)nc(N)c3)nc21 [Example 2, 4-(2-methyl-3-propyl-3H-imidazo[4,5-b]pyridin-5-yl)pyridine-2,6-diamine]
19 | 0.004 | 0.17 | 3.45 | – | 0.011 | Cc1nc2ccc(-c3cc(N)nc(N)c3)nc2n1CC1CC1 [Example 11, 4-[3-(cyclopropylmethyl)-2-methyl-3H-imidazo[4,5-b]pyridin-5-yl]pyridine-2,6-diamine]
20 | 0.004 | 0.11 | 0.47 | 0.008 | 0.011 | Cc1nc2ccc(-c3cc(N)nc(N)c3)nc2n1CCC1CCCCC1 [Example 15, 4-[3-(2-cyclohexylethyl)-2-methyl-3H-imidazo[4,5-b]pyridin-5-yl]pyridine-2,6-diamine]
21 | 0.004 | – | 1.82 | 0.006 | 0.007 | Cc1nc2ccc(-c3cc(N)nc(N)c3)nc2n1CCc1cccs1 [Example 26, 4-{2-methyl-3-[2-(thiophen-2-yl)ethyl]-3H-imidazo[4,5-b]pyridin-5-yl}pyridine-2,6-diamine]
22 | 0.002 | – | > 10 | 0.003 | 0.021 | Cc1nc2ccc(-c3cc(N)nc(N)c3)nc2n1CCc1ccc(Cl)cc1Cl [Example 59, 4-{3-[2-(2,4-dichlorophenyl)ethyl]-2-methyl-3H-imidazo[4,5-b]pyridin-5-yl}pyridine-2,6-diamine]
